# Tests used:
# [1] = system: THP-1 cells; assay: THP-1 anti-proliferation assay (Cell Titer GLO, 72 hr); format: cell-based; conditions: Homo sapiens
# Experimental: The inhibition of eukaryotic cell culture growth was established using THP-1 cells (ATCC Cat. #TIB-202), a human acute monocytic leukemia cell line. These are suspension cells. This cell-based assay for eukaryotic culture growth inhibition was performed in 384-well plate format to determine the in vitro cytotoxicity of the test compounds.
# Compounds were solubilized in water. Compounds were diluted 1:2 in assay media and 1:2 serial dilutions were performed in 50:50 media:water mix. The high dose was 40 μM, 10% water final. 5 μL of compound at 5× the final concentration was dispensed to the 384 assay plate. 20 μL of THP-1 cells were added.
# Compounds were plated in dose response format (10% water final concentration), followed by the addition of cells. Cells were grown and incubated with compounds in RPMI-1640 medium/pen/strep/L-glutamine/10% FBS/2-mercaptoethanol for 72 hr at 37° C. with 5% CO2. At the end of the incubation time, cells were assayed for viability using Cell Titer GLO (Promega).
# [2] = system: HL60 cell line; assay: Proliferation assay in HL60 cell line (CellTiterGlo, 72 hour); format: cell-based; conditions: Homo sapiens, HL-60, HL60 cells
# Experimental: (§1) Compounds 1, 2, 3a, 4a and 5 as well as certain Compound included in FIGS. 15A-15M, 16A-16F and 17A-17D were tested in the following cell lines: MOLT4 and K562. Compounds 1, 2, 3a, 4a and 5 were also tested in the cell line HL60.
# (§2) The MOLT4 cell line (CRL-1582™) and K562 cell line (CCL-243™) were obtained from American Type Culture Collection (ATCC). They were grown in a T-75 flask in RPMI Medium (GIBCO, Catalog No. 11875-093) containing 10% fetal bovine serum (ATCC, Catalog No. 30-2020) and penicillin-streptomycin (ATCC, Catalog No. 30-2300) at 37° C. in a humidified, 5% CO2 incubator. The HL60 cell line (CCL-240™) was obtained from American Type Culture Collection (ATCC). They were grown in a T-75 flask in DMEM Medium (GIBCO, Catalog No. 11965-092) containing 20% fetal bovine serum (ATCC, Catalog No. 30-2020) and penicillin-streptomycin (ATCC, Catalog No. 30-2300) at 37° C. in a humidified, 5% CO2 incubator.
# (§3) 50 μL of cells (8,500 cells/well) were plated in a 96-well plate and incubated overnight at 37° C. in a humidified, 5% CO2 incubator. The next day, 50 μL of medium containing 3-fold serially diluted compounds in duplicate was added to the wells such that the starting concentration of the compound in the first pair of the wells was 10 μM. After 72 hour incubation with the compound, cell viability was measured in a luminometer after the addition of 100 μL/well CellTiterGlo reagent (Promega) as recommended by the manufacturer. The IC50 values for the compounds were calculated using SoftMax software.
# [3] = system: MV4-11 cell line; assay: MV4-11 anti-proliferation assay (CellTiterGlo, 72 hour); format: cell-based; conditions: Homo sapiens, MV4-11 cells
# Experimental: MV4-11 cell line (MV-4-11, CRL-9591™) was obtained from American Type Culture Collection (ATCC). Cells were grown in a T-75 flask in RPMI Medium (GIBCO, Catalog No. 11875-093) containing 10% fetal bovine serum (ATCC, Catalog No. 30-2020) and penicillin-streptomycin (ATCC, Catalog No. 30-2300) at 37° C. in a humidified, 5% CO2 incubator.
# as §3, with “(10,000” for “(8,500”
# [4] = system: MOLT4 cell line; assay: Proliferation assay in MOLT4 cell line (CellTiterGlo, 72 hour); format: cell-based; conditions: Homo sapiens, MOLT-4, MOLT4 cells
# Experimental: as §1, §2, §3
# [5] = system: K562 cell line; assay: Proliferation assay in K562 cell line (CellTiterGlo, 72 hour); format: cell-based; conditions: Homo sapiens, K562 cells
# Experimental: as §1, §2, §3
# [6] = system: subcutaneous MV4-11 leukemia model; assay: MV4-11 xenografts: in vivo anti-tumor efficacy in CB17 SCID mice; set-up: species or system mouse; conditions: for tumor response: dosed at maximum tolerated dose, cytarabine 100 mg/kg I.P. QD, tigecycline 50 mg/kg I.P. BID
# Experimental: The in vivo anti-tumor efficacy of Compounds 3a, 4a and 5 in the subcutaneous MV4-11 leukemia model in CB17 SCID mice was tested.
# The MV4-11 cells (ATCC-CRL-9591) were maintained in vitro as a suspension culture at a density of 0.2-1.5×10^6 cells/ml in RPMI1640 medium supplemented with 10% heat inactivated fetal bovine serum, 100 U/ml penicillin and 100 μg/ml streptomycin at 37° C. in an atmosphere of 5% CO2 in air. The tumor cells were routinely subcultured twice weekly. The cells growing in an exponential growth phase were harvested and counted for tumor inoculation.
# CB17 SCID, female, 6-8 weeks, weighing approximately 18-22 g.
# Each mouse was inoculated subcutaneously at the right flank with MV4-11 tumor cells (10×10^6) in 0.2 ml of PBS (with Matrigel 1:1) for tumor development. The animals were randomized and treatment was started when the average tumor volume reached approximately 150-200 mm^3 for the efficacy study. The test article administration and the animal numbers in each group are shown below.
# The major endpoint monitored was tumor growth delay or cure. Tumor sizes were measured twice weekly in two dimensions using a caliper, and the volume expressed in mm^3 using the formula: V=0.5 a×b^2 where a and b are the long and short diameters of the tumor, respectively. The tumor sizes were then used for the calculations of both T-C and T/C values. T-C is calculated with T as the median time (in days) required for the treatment group tumors to reach a predetermined size (e.g., 1,000 mm^3), and C is the median time (in days) for the control group tumors to reach the same size. […]
# TGI was calculated for each group using the formula: TGI (%)=[1−(Ti−T0)/(Vi−V0)]×100; Ti is the average tumor volume of a treatment group on a given day, T0 is the average tumor volume of the treatment group on the first day of treatment, Vi is the average tumor volume of the vehicle control group on the same day with Ti, and V0 is the average tumor volume of the vehicle group on the first day of treatment.
# [7] = system: AML ex-vivo bone marrow samples; assay: Antiproliferative activity against 15 AML ex-vivo bone marrow samples (Vivia's Native Environment cell depletion assay); format: cell-based, human; conditions: 48 hours post drug exposure
# Experimental: Antiproliferative activity of Compound 3a and cytarabine was measured against 15 AML ex-vivo bone marrow samples (including two cytarabine-resistant samples). The assay used was Vivia's Native Environment cell depletion assay. An outline of the study is below: • Five different concentrations of each drug was used as a monotherapy • The incubation time point for measurement was 48 hours post drug exposure The results are shown graphically in FIG. 6.
# [8] = system: mitochondrial protein synthesis; assay: Intact isolated rat heart mitochondrial protein synthesis assay ([S35]-methionine incorporation); format: biochemical; conditions: isolated rat heart mitochondria, 0.15 to 40 μM; read-out: dose-response curve IC50, mitochondrial protein synthesis
# Experimental: The effect of Compound 3a on mitochondrial protein synthesis was determined using an intact isolated rat heart mitochondrial protein synthesis assay previously described [See, 1, 2 below]. Intact, highly coupled mitochondria isolated from normal rat hearts were incubated in an incubation medium containing [S^35]-methionine. The compounds were diluted to generate a final dose-response curve from 0.15 to 40 μM. The rate of incorporation of [S^35]-methionine into protein was measured at 20, 40, and 60 minutes of incubation for each sample using a filter paper disc assay and expressed as pmol methionine incorporated per mg mitochondrial protein as described [1, 2, 3 below]. The time course data for control and all drug concentrations were nearly linear. The slope of each time-course data plot is calculated as the least squares best fit line through zero and the three time points for each sample. The rate of protein synthesis varies modestly with each mitochondrial preparation (mean and SEM=20.3+/−2.4 pm/mg protein). To normalize for this variability, the rates were expressed as a percent of the rate of the control line for each preparation of mitochondria.
# Each experiment was repeated three times.
# Dose-response curves were obtained by expressing the percent of control obtained for each concentration of Compound 3a against the concentration of Compound 3a. […]
Compound,IC50 [1],IC50 [2],IC50 [3],IC50 [4],IC50 [5],tumor response [6],ex vivo activity against the tumor cells from frozen bone marrow of the AML patients ([7]; monotherapy),"EC50 ([7]; Homo sapiens, 15 AML ex-vivo bone marrow samples)",IC50 [8],"tumor shrinkage ([6]; all animals treated, 12.5 mg/kg I.P., dose 1 and dose 2 of Table 1C)"
NC(=O)C1=C(O)[C@@H](N)[C@@H]2C[C@@H]3Cc4c(F)cc(NC(=O)CN5CCCC5)c(O)c4C(=O)C3=C(O)[C@]2(O)C1=O [Compound 5],0.64 µM,0.51 µM,0.17 µM,0.13 µM,0.16 µM,,,,,
"CN(C)c1cc(NC(=O)CNC(C)(C)C)c(O)c2c1C[C@H]1C[C@H]3[C@H](N(C)C)C(O)=C(C(N)=O)C(=O)[C@@]3(O)C(O)=C1C2=O [Tigecycline, tigecycline, reference compound]",29.1 µM,15.4 µM,4.64 µM,5.1 µM,7.2 µM,no tumor response,,,,
Nc1ccn([C@@H]2O[C@H](CO)[C@@H](O)[C@@H]2O)c(=O)n1 [Cytarabine],,,,,,no tumor response,,,,
CCN1CCC[C@H]1c1cc(O)c2c(c1OC)C[C@H]1C[C@H]3[C@H](N)C(O)=C(C(N)=O)C(=O)[C@@]3(O)C(O)=C1C2=O [Compound 3a],0.75 µM,0.37 µM,0.1 µM,0.12 µM,0.11 µM,,potent ex vivo activity,170 nM,700 nM,≥ 70%
"CCN[C@@H]1C(O)=C(C(N)=O)C(=O)[C@@]2(O)C(O)=C3C(=O)c4c(O)cc([C@@H]5CCCN5CC)c(OC)c4C[C@H]3C[C@@H]12 (single isomer, unassigned) [Compound 4a]",0.9 µM,0.41 µM,0.13 µM,0.13 µM,0.13 µM,,,,,
